Molecules are shown by their SMILES.

One compound from publication PMC5557891, “Time-lapse crystallography snapshots of a double-strand break repair polymerase in action” (Nature Communications, 2017) can be followed below.

In this test the target is T1, pol μ (truncated human wild-type DNA polymerase μ) (Homo sapiens, UniProt Q9NP87, DEL398-410).
T1 construct: gene POLM; recalled: residues about 132-494; loop2 'previously truncated to improve crystallizability' (between Pro397 and Ser411; recalled deletion Pro398-Pro410); GST fusion from pGEXM, tag cut on resin with TEV; E. coli BL21(DE3)CodonPlus-RIPL; parent model PDB 4M04
T1 sequence (Q9NP87 with tags, fused parts or gaps DEL398-410): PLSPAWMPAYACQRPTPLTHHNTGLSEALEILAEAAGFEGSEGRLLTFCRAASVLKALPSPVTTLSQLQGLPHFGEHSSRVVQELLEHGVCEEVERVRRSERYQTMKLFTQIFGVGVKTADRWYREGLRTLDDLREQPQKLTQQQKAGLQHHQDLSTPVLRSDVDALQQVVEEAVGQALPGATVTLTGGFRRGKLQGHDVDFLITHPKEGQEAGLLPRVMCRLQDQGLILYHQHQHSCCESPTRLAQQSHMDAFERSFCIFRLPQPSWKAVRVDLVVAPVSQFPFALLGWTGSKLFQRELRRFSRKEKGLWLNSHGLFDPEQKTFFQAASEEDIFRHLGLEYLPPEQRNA
Description: time-lapse X-ray crystallography. In kind it is binding. Particulars: product complex after in crystallo TTP insertion into gapped DNA; 10 mM MgCl2 (60 min, 2.02 Å) or 10 mM MnCl2; 4 °C, pH 7.5.

On to `O=P(O)(O)OP(=O)(O)O` [PPi], for which the “time-lapse X-ray crystallography” value is “The position of Pβ of the PPi product is identical to that expected after bond cleavage”.
